In PMC9311798, “A Novel Class of Potent Anti-Tyrosinase Compounds with Antioxidant Activity, 2-(Substituted phenyl)-5-(trifluoromethyl)benzo[d]thiazoles: In Vitro and In Silico Insights” (Antioxidants, 2022):

Tests used:
MITF in B16F10 cells = experiment: Western blot of nuclear MITF; type: cell-based, murine; conditions: nuclear fraction
Experimental: Five different concentrations of 1b (0, 2, 5, 10, and 20 µM) were exposed to B16F10 cells for 48 h, and the cells were washed with cold PBS two times, harvested, lysed, and centrifuged at 4 °C (12,000 rpm for 10 min). Cell pellets were suspended in 10 mM Tris (pH 8.0) containing 1.5 mM MgCl2, 1 mM DTT, 0.1% NP-40, and protease inhibitors (GenDEPOT), incubated on ice for 15 min, and centrifuged at 12,000× g for 15 min at 4 °C. Supernatants (cytosolic fractions) and pellets were resuspended in 10 mM Tris (pH 8.0) containing 50 mM KCl, 100 mM NaCl, and protease inhibitor, incubated on ice for 30 min, and centrifuged at 12,000× g for 15 min at 4 °C. The resultant supernatants were nuclear fractions. The protein concentrations were determined by a Bicinchoninic Acid (BCA)™ Assay Kit (Pierce, Rockford, IL, USA). The lysed protein samples were mixed in loading buffer (0.2% bromophenol blue, 12.5 mM Tris-HCl, pH 6.8, 10% 2-mercaptoethanol, and 4% SDS) at a volume ratio of 1:4, and boiled for 10 min. […] Quantification of Western blot data were analyzed by CS Analyzer 3.2 (Densitograph) image software (http://www.attokorea.co.kr, admitted on 21 May 2022).

SMILES: Oc1ccc(-c2nc3cc(C(F)(F)F)ccc3s2)c(O)c1 [Compound 1b, 4-(5-(Trifluoromethyl)benzo[d]thiazol-2-yl)benzene-1,3-diol]
- MITF protein levels (MITF in B16F10 cells; high concentrations (10–20 µM)): significantly and dose-dependently reduced MITF protein levels
- MITF protein levels (MITF in B16F10 cells; low concentrations (2–5 μM)): MITF protein levels increased
- melting point: 236.2 to 238.2 °C
